Values quoted from earlier work in patent publication US20230157281A1, “COMPOSITIONS AND METHODS FOR REPELLING ANIMALS FROM AN OBJECT” (Texas Tech University System, priority 2020, published 2023).
Read-outs that look alike come from different tables or passages of the source.

How the values were obtained:
cats [1] = tested on: cats
cats [2] = conditions: preliminary data from another study; dosage not detailed

SMILES: CC(C)(S)CCO [MMB, 3-Mercapto-3-Methyl Butanol]
- use of litter box (cats [1]; added to the litter at 50 μg/kg of litter): did not alter the use of litterbox
- use of litter box (cats [1]; substance used in litter, result in words): did not increase the use of litter box
- interest shown by male and female cats (cats [2]): showed interests

SMILES: CC(C)(CCO)SC[C@H](N)C(=O)O [felinine]
- use of litter box (cats [1]; substance used in litter, result in words, listed as I-felinine): attract cats to eliminate in the litter box
